According to patent publication US11738063B2, “Pharmaceutical composition for preventing or treating neurodegenerative diseases which includes flower extract of Daphne genkwa or fractions thereof as active ingredient” (KOREA RESEARCH INSTITUTE OF BIOSCIENCE AND BIOTECHNOLOGY, priority 2016, dated 2023):
Where “and” joins values, the source holds several entries; their conditions need not be identical. Equal values may be shown once.

Tests used:
[1] = tested on: Salmonella typhimurium TA1537; experiment: Bacterial reverse mutation assay, TA1537; details: TA1537, S9+, 3.0 μg/plate, positive control
[2] = tested on: Salmonella typhimurium TA100; experiment: Bacterial reverse mutation assay, TA100; details: TA100, S9+, 2.0 μg/plate, positive control
[3] = tested on: Salmonella typhimurium TA1535; experiment: Bacterial reverse mutation assay, TA1535; details: TA1535, S9+, 3.0 μg/plate, positive control
[4] = tested on: Salmonella typhimurium TA98; experiment: Bacterial reverse mutation assay, TA98; details: TA98, S9+, 1.0 μg/plate, positive control
[5] = tested on: Escherichia coli WP2uvrA (pKM101); experiment: Bacterial reverse mutation assay, WP2uvrA (pKM101); details: S9+, 2.0 μg/plate, positive control

Question: Which “Mean revertant colony count” value [1] does the source give for `Nc1ccc2cc3ccccc3cc2c1` [2-Aminoanthracene (2-AA), 2-Aminoanthracene] here?
Answer: 129 and 220

Question: What about the “Mean revertant colony count” value [2] of the same molecule?
Answer: 592 and 838

Question: What about the “Mean revertant colony count” value [3] of the same molecule?
Answer: 101

Question: And the “Mean revertant colony count” value [4]?
Answer: 362 and 440

Question: And the “Mean revertant colony count” value [5]?
Answer: 462 and 545
